Source: US9695155B2, “Herbicidal substituted pyrimidinyloxy benzene compounds” (E. I. DU PONT DE NEMOURS AND COMPANY, priority 2013, dated 2017)

What was measured:
barnyardgrass [1] = assay: Test A preemergence; assay type: in vivo, Echinochloa crus-galli
How it was run: (§1)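 Visual 0–100 rating (100 = complete control) taken about 10 d post-treatment relative to untreated checks. Preemergence: directed soil spray on sown loam/sand pots. Postemergence: seedlings 2–10 cm, 1–2 leaf. Non-phytotoxic solvent formulation with surfactant.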

large (Lg) crabgrass [2] = assay: Test A preemergence; assay type: in vivo, Digitaria sanguinalis
How it was run: as §1

morningglory [3] = assay: Test A preemergence; assay type: in vivo, Ipomoea spp.
How it was run: as §1

corn = assay: Test A preemergence; assay type: in vivo, Zea mays
How it was run: as §1

large (Lg) crabgrass [4] = assay: Test A postemergence; assay type: in vivo, Digitaria sanguinalis
How it was run: as §1

morningglory [5] = assay: Test A postemergence; assay type: in vivo, Ipomoea spp.
How it was run: as §1

wheat = assay: Test A postemergence; assay type: in vivo, Triticum aestivum
How it was run: as §1

Heteranthera limosa = assay: Test B flooded paddy test; assay type: in vivo; details: Flood, 250 g ai/ha, 0 to 100 scale where 0 is no effect and 100 is complete control
How it was run: (§2)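 2-leaf stage plants; pots flooded to 3 cm, compound added to paddy water, depth maintained. Greenhouse 13–15 d. Visual rating vs untreated controls, 0 (no effect) to 100 (complete control); dash = no result.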

barnyardgrass [6] = assay: Test B flooded paddy test; assay type: in vivo, Echinochloa crus-galli; details: Flood, 250 g ai/ha, 0 to 100 scale where 0 is no effect and 100 is complete control
How it was run: as §2

blackgrass = assay: Test C postemergence; assay type: in vivo, Alopecurus myosuroides
Excerpt: (§3) Seeds of plant species selected from blackgrass (Alopecurus myosuroides), Italian ryegrass (Lolium multiflorum), wheat, winter (winter wheat, Triticum aestivum), galium (catchweed bedstraw, Galium aparine), corn (Zea mays), large (Lg) crabgrass (Digitaria sanguinalis), giant foxtail (Setaria faberii), johnsongrass (Sorghum halepense), lambsquarters (Chenopodium album), morningglory (Ipomoea coccinea), yellow nutsedge (Cyperus esculentus), pigweed (Amaranthus retroflexus), ragweed (common ragweed, Ambrosia elatior), soybean (Glycine max), barnyardgrass (Echinochloa crus-galli), oilseed rape (Brassica napus), waterhemp (common waterhemp, Amaranthus rudis), kochia (Kochia scoparia), wild oat (Avena fatua), surinam grass (Brachiaria decumbens), foxtail, green (green foxtail, Setaria viridis), goosegrass (Eleusine indica), bromegrass, downy (downy bromegrass, Bromus tectorum), nightshade (eastern black nightshade, Solanum ptycanthum), cocklebur (common cocklebur, Xanthium strumarium), cupgrass, woolly (woolly cupgrass, Eriochloa villosa), bermudagrass (Cynodon dactylon), sunflower, (common oilseed sunflower, Helianthus annuus), Russian thistle (Salsola kali), and velvetleaf (Abutilon theophrasti) were planted into a blend of loam soil and sand and treated preemergence with test chemicals formulated in a non-phytotoxic solvent mixture which included a surfactant.
(§4) At the same time, plants selected from these crop and weed species and also barley, winter (winter barley, Hordeum vulgare), windgrass (Apera spica-venti), chickweed (common chickweed, Stellaria media), deadnettle (henbit deadnettle, Lamium amplexicaule), and canarygrass (littleseed canarygrass, Phalaris minor) were planted in pots containing Redi-Earth® planting medium (Scotts Company, 14111 Scottslawn Road, Marysville, Ohio 43041) comprising spaghnum peat moss, vermiculite, wetting agent and starter nutrients and treated with postemergence applications of test chemicals formulated in the same manner. Plants ranged in height from 2 to 18 cm (1- to 4-leaf stage) for postemergence treatments. Treated plants and controls were maintained in a greenhouse for 13 to 15 days, after which time all species were compared to controls and visually evaluated. Plant response ratings, summarized in Table C, are based on a scale of 0 to 100 where 0 is no effect and 100 is complete control. A dash (-) response means no test result.

johnsongrass = assay: Test C postemergence; assay type: in vivo, Sorghum halepense
Excerpt: as §3, §4

wild oat = assay: Test C postemergence; assay type: in vivo, Avena fatua
How it was run: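 Visual injury score versus untreated controls, 0 = no effect, 100 = complete control, taken 13 to 15 days after treatment in the greenhouse. Pre-emergence pots held loam/sand; post-emergence plants grew in sphagnum peat/vermiculite mix and were sprayed at the 1- to 4-leaf stage.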

[7] = 125 g ai/ha, 0 to 100 scale where 0 is no effect and 100 is complete control
[8] = 500 g ai/ha, 0 to 100 scale, 0 no effect, 100 complete control, approx. 10 days
[9] = 500 g ai/ha, 0 to 100 scale, 0 no effect, 100 complete control
[10] = Postemergence, 31 g ai/ha, scale 0 to 100 (0 no effect, 100 complete control), 13 to 15 days
[11] = Postemergence, 62 g ai/ha, scale 0 to 100 (0 no effect, 100 complete control)
[12] = 1000 g ai/ha, 0 to 100 scale, 0 no effect, 100 complete control
[13] = 16 g ai/ha, postemergence, visual rating, scale 0 to 100 (0 no effect, 100 complete control), 13 to 15 days

Fc1cnc(Oc2ccccc2-n2cc(Br)cn2)nc1 [Compound 10, 2-[2-(4-bromo-1H-pyrazol-1-yl)phenoxy]-5-fluoropyrimidine]
pest or weed control at 125 g/ha (barnyardgrass [1]; Echinochloa crus-galli, pre-emergence, 240 h, 125 g ai/ha, 0 to 100 scale where 0 is no effect and 100 is complete control, read-out: Barnyardgrass plant response rating): 60% | pest or weed control at 500 g/ha (barnyardgrass [1]; Echinochloa crus-galli, pre-emergence, 240 h, 500 g ai/ha, 0 to 100 scale, 0 no effect, 100 complete control, approx. 10 days, read-out: Barnyardgrass plant response rating): 90% | pest or weed control at 125 g/ha (large (Lg) crabgrass [2]; Digitaria sanguinalis, pre-emergence, 240 h, 125 g ai/ha, 0 to 100 scale where 0 is no effect and 100 is complete control, read-out: Crabgrass, Large plant response rating): 100% | pest or weed control at 500 g/ha (large (Lg) crabgrass [2]; Digitaria sanguinalis, pre-emergence, 240 h, 500 g ai/ha, 0 to 100 scale, 0 no effect, 100 complete control, approx. 10 days, read-out: Crabgrass, Large plant response rating): 100% | pest or weed control at 125 g/ha (morningglory [3]; Ipomoea, pre-emergence, 240 h, 125 g ai/ha, 0 to 100 scale where 0 is no effect and 100 is complete control, read-out: Morningglory plant response rating): 40% | pest or weed control at 500 g/ha (morningglory [3]; Ipomoea, pre-emergence, 240 h, 500 g ai/ha, 0 to 100 scale, 0 no effect, 100 complete control, approx. 10 days, read-out: Morningglory plant response rating): 60% | plant injury at 125 g/ha (corn; Zea mays, pre-emergence, 240 h, 125 g ai/ha, 0 to 100 scale where 0 is no effect and 100 is complete control, read-out: Corn plant response rating): 0% | plant injury at 500 g/ha (corn; Zea mays, pre-emergence, 240 h, 500 g ai/ha, 0 to 100 scale, 0 no effect, 100 complete control, approx. 10 days, read-out: Corn plant response rating): 20% | pest or weed control at 125 g/ha (large (Lg) crabgrass [4]; Digitaria sanguinalis, post-emergence, 240 h, 125 g ai/ha, 0 to 100 scale where 0 is no effect and 100 is complete control, read-out: Plant response rating, Crabgrass, Large): 50% | pest or weed control at 500 g/ha (large (Lg) crabgrass [4]; Digitaria sanguinalis, post-emergence, 240 h, 500 g ai/ha, 0 to 100 scale, 0 no effect, 100 complete control, read-out: Plant response rating Crabgrass, Large): 80% | pest or weed control at 125 g/ha (morningglory [5]; Ipomoea, post-emergence, 240 h, 125 g ai/ha, 0 to 100 scale where 0 is no effect and 100 is complete control, read-out: Plant response rating, Morningglory): 90% | pest or weed control at 500 g/ha (morningglory [5]; Ipomoea, post-emergence, 240 h, 500 g ai/ha, 0 to 100 scale, 0 no effect, 100 complete control, read-out: Plant response rating Morningglory): 100% | plant injury at 125 g/ha (wheat; Triticum aestivum, post-emergence, 240 h, 125 g ai/ha, 0 to 100 scale where 0 is no effect and 100 is complete control, read-out: Plant response rating, Wheat): 0% | plant injury at 500 g/ha (wheat; Triticum aestivum, post-emergence, 240 h, 500 g ai/ha, 0 to 100 scale, 0 no effect, 100 complete control, read-out: Plant response rating Wheat): 60% | pest or weed control at 250 g/ha (Heteranthera limosa; Heteranthera limosa, read-out: Plant response rating, Ducksalad): 75% | pest or weed control at 250 g/ha (barnyardgrass [6]; Echinochloa crus-galli, read-out: Plant response rating, Barnyardgrass): 0% | pest or weed control at 125 g/ha (blackgrass; Alopecurus myosuroides, post-emergence, 125 g ai/ha, postemergence, read-out: Plant response rating (0 to 100), Blackgrass): 40% | pest or weed control at 250 g/ha (blackgrass; Alopecurus myosuroides, post-emergence, 250 g ai/ha, postemergence, read-out: Plant response rating (0 to 100), Blackgrass): 75% | pest or weed control at 31 g/ha (blackgrass; Alopecurus myosuroides, post-emergence, Postemergence, 31 g ai/ha, scale 0 to 100 (0 no effect, 100 complete control), 13 to 15 days, read-out: Plant response rating, Blackgrass): 5% | pest or weed control at 62 g/ha (blackgrass; Alopecurus myosuroides, post-emergence, Postemergence, 62 g ai/ha, scale 0 to 100 (0 no effect, 100 complete control), read-out: Plant response rating, Blackgrass): 5% | pest or weed control at 125 g/ha (johnsongrass; Sorghum halepense, post-emergence, 125 g ai/ha, postemergence, read-out: Plant response rating (0 to 100), Johnsongrass): 5% | pest or weed control at 250 g/ha (johnsongrass; Sorghum halepense, post-emergence, 250 g ai/ha, postemergence, read-out: Plant response rating (0 to 100), Johnsongrass): 10% | pest or weed control at 31 g/ha (johnsongrass; Sorghum halepense, post-emergence, Postemergence, 31 g ai/ha, scale 0 to 100 (0 no effect, 100 complete control), 13 to 15 days, read-out: Plant response rating, Johnsongrass): 5% | pest or weed control at 125 g/ha (wild oat; Avena fatua, post-emergence, 125 g ai/ha, postemergence, read-out: Plant response rating (0 to 100), Oat, Wild): 5% | pest or weed control at 250 g/ha (wild oat; Avena fatua, post-emergence, 250 g ai/ha, postemergence, read-out: Plant response rating (0 to 100), Oat, Wild): 30% | pest or weed control at 31 g/ha (wild oat; Avena fatua, post-emergence, Postemergence, 31 g ai/ha, scale 0 to 100 (0 no effect, 100 complete control), 13 to 15 days, read-out: Plant response rating, Oat, Wild): 0% | pest or weed control at 62 g/ha (wild oat; Avena fatua, post-emergence, Postemergence, 62 g ai/ha, scale 0 to 100 (0 no effect, 100 complete control), read-out: Plant response rating, Oat, Wild): 0%

N#Cc1cccc(Oc2ncc(F)cn2)c1-n1cc(Br)cn1 [Compound 62]
Plant response rating, Barnyardgrass (barnyardgrass [1]; [7]): 60 | Barnyardgrass plant response rating (barnyardgrass [1]; [8]): 100 | Plant response rating, Crabgrass, Large (large (Lg) crabgrass [2]; [7]): 90 | Crabgrass, Large plant response rating (large (Lg) crabgrass [2]; [8]): 100 | Plant response rating, Morningglory (morningglory [3]; [7]): 0 | Morningglory plant response rating (morningglory [3]; [8]): 90 | Plant response rating, Corn (corn; [7]): 0 | Corn plant response rating (corn; [8]): 90 | Plant response rating, Crabgrass, Large (large (Lg) crabgrass [4]; [7]): 90 | Plant response rating, Crabgrass, Large (large (Lg) crabgrass [4]; [9]): 100 | Plant response rating, Morningglory (morningglory [5]; [7]): 90 | Plant response rating, Morningglory (morningglory [5]; [9]): 100 | Plant response rating, Wheat (wheat; [7]): 20 | Plant response rating, Wheat (wheat; [9]): 100 | Plant response rating, Ducksalad (Heteranthera limosa): 80 | Plant response rating, Barnyardgrass (barnyardgrass [6]): 0 | Plant response rating (0 to 100), Blackgrass (blackgrass; 125 g ai/ha, postemergence): 30 | Plant response rating (0 to 100), Blackgrass (blackgrass; 250 g ai/ha, postemergence): 50 | Plant response rating, Blackgrass (blackgrass; [10]): 0 | Plant response rating, Blackgrass (blackgrass; [11]): 5 | Plant response rating (0 to 100), Johnsongrass (johnsongrass; 125 g ai/ha, postemergence): 10 | Plant response rating (0 to 100), Johnsongrass (johnsongrass; 250 g ai/ha, postemergence): 15 | Plant response rating, Johnsongrass (johnsongrass; [10]): 5 | Plant response rating, Johnsongrass (johnsongrass; [11]): 5 | Plant response rating (0 to 100), Oat, Wild (wild oat; 125 g ai/ha, postemergence): 30 | Plant response rating (0 to 100), Oat, Wild (wild oat; 250 g ai/ha, postemergence): 35 | Plant response rating, Oat, Wild (wild oat; [10]): 0 | Plant response rating, Oat, Wild (wild oat; [11]): 0

Clc1cnc(Oc2cccc(Br)c2-n2cc(Br)cn2)nc1 [Compound 65]
Plant response rating, Barnyardgrass (barnyardgrass [1]; [12]): 100 | Plant response rating, Crabgrass, Large (large (Lg) crabgrass [2]; [12]): 100 | Morningglory plant response rating (morningglory [3]; 1000 g ai/ha, 0 to 100 scale, 0 no effect, 100 complete control, approx. 10 days): 100 | Plant response rating, Corn (corn; [12]): 40 | Plant response rating, Crabgrass, Large (large (Lg) crabgrass [4]; [12]): 100 | Plant response rating, Morningglory (morningglory [5]; [12]): 100 | Plant response rating, Wheat (wheat; [12]): 60 | Plant response rating, Ducksalad (Heteranthera limosa): 95 | Plant response rating, Barnyardgrass (barnyardgrass [6]): 0 | Blackgrass plant response rating (blackgrass; [13]): 0 | Plant response rating (0 to 100), Blackgrass (blackgrass; 125 g ai/ha, postemergence): 15 | Plant response rating, Blackgrass (blackgrass; [10]): 10 | Plant response rating, Blackgrass (blackgrass; [11]): 40 | Johnsongrass plant response rating (johnsongrass; [13]): 5 | Plant response rating (0 to 100), Johnsongrass (johnsongrass; 125 g ai/ha, postemergence): 5 | Plant response rating, Johnsongrass (johnsongrass; [10]): 5 | Plant response rating, Johnsongrass (johnsongrass; [11]): 5 | Plant response rating (0 to 100), Oat, Wild (wild oat; 125 g ai/ha, postemergence): 5 | Plant response rating, Oat, Wild (wild oat; [10]): 0 | Plant response rating, Oat, Wild (wild oat; [11]): 5
